The nature of data set [1]: Solubility in organic solvents. In kind it is physicochemical. The settings on record: for solubility: organic solvent or mixture.
A short description of the next data set: Solubility in water. Format: physicochemical.
Data set [2] concerns Granular cell cultures from mouse cerebellum exposed to Glu. As to the kind of experiment: Neuroprotective effect against excitotoxicity of Glu in primary neuronal cultures (cell survival, MTT). In kind it is cell-based. The conditions noted are these: 24 h. On the procedure:
In vitro evaluation of the neuroprotective effect against excitotoxicity of Excitatory Amino Acids in primary neuronal cultures of the following compounds was carried out:
The compounds under evaluation, referred to as a, b, c, and d, were solubilized in DMSO and culture medium to obtain concentrations of 100 μM (4% DMSO) and 60 μM (3% DMSO) and added to the culture mediums according to different treatment schedules in order to determine the time-effect relationship vs. the incubation time and the exposure to the neurotoxic stimulus.
Granular cell cultures were obtained from postnatal day 8-9 mouse Balb-6 cerebellum. The cells were suspended in EBM+2 mM L-glutamine, 100 U/ml penicillin, […], 25 mM KCl and 10% fetal calf serum, plated on polylysine substrate, cultured for 8-10 days and then exposed to Glu 500 μM at room temperature for 5 min. The compounds being evaluated were added to the cultures at the same time of exposure, soon after exposure or 15 min after exposure to Glu, and cultured for 60 minutes; cultures were then washed and brought back to the original medium. The number of survived cells was evaluated by […] method (MTT) 24 hours after excitotoxic stimulation.

The mark [3] stands for this setting: n-octanol, read-out: solubility in n-octanol.
Setting [4] is: dmso, read-out: solubility in DMSO.
The mark [5] stands for this setting: A: compound added at the same time of exposure to Glu (500 μM, 5 min), 60 μM, % of control values, average of three tests, Glu alone 44, read-out: survived cells (%), treatment A, 60 μM.
[6] abbreviates: A: compound added at the same time of exposure to Glu (500 μM, 5 min), % of control values, average of three tests, Glu alone 40, read-out: survived cells (%), treatment A, 100 μM.
Where [7] appears, read: B: compound added soon after exposure to Glu (500 μM, 5 min), % of control values, average of three tests, Glu alone 40, read-out: survived cells (%), treatment B, 100 μM.
Setting [8] is: C: compound added 15 min after exposure to Glu (500 μM, 5 min), 60 μM, % of control values, average of three tests, Glu alone 44, read-out: survived cells (%), treatment C, 60 μM.
Where [9] appears, read: C: compound added 15 min after exposure to Glu (500 μM, 5 min), % of control values, average of three tests, Glu alone 40, read-out: survived cells (%), treatment C, 100 μM.
[10] abbreviates: aqueous buffer, 50 mM phosphate buffer, pH 7.4, NaCl 0.9%, read-out: solubility in water: 50 mM phosphate buffer.

SMILES strings stand for the structures. Structures can show the parent of a compound that is named as a salt. Where two headings read alike, the source gives them in different places.

As to `CCCCCCCCCCCCCCCC(=O)NCCOC(C)=O` [Example 2, N-(2-Acetoxyethyl)-Palmitoylamide], the solubility in data set [1] (setting [3]) is above 5000 µg/mL. The “solubility in water” value in the data set “Solubility in water” (water) is listed as “poorly soluble”.
Turning to `CCCCC/C=C\C/C=C\C/C=C\C/C=C\CCCC(=O)NCCO` [Example 10, N-(2-Hydroxyethyl)-Arachidonamide], the solubility is above 10000 µg/mL in data set [1] (setting [4]) and above 10000 µg/mL in data set [1] (ethanol, read-out: solubility in ethanol). Further, the “solubility in water” value in “Solubility in water” (water) was “poorly soluble”. In data set [2] (read-out: survived cells (%), treatment A, 60 μM), the viability at 60 µM worked out at 95%.
As to `CC(=O)OCCNC(=O)/C=C/C(=O)NCCOC(C)=O` [Example 4, N,N'-Bis(2-Acetoxyethyl)-Fumaroylamide], the solubility in data set [1] (setting [4]) is above 10000 µg/mL. The “solubility in water” value in the data set “Solubility in water” (water) is “poorly soluble”.
In the case of `CC(=O)OCCNC(=O)c1ccccc1` [Example 3, N-(2-Acetoxyethyl)-Benzoylamide], the solubility in data set [1] (setting [4]) and in data set [1] (setting [3]) was above 10000 µg/mL throughout. For the same compound, the “solubility in water” value in “Solubility in water” (water) is recorded as “poorly soluble”.
Regarding `CCCCCCCCCCCCCCCC(=O)NCCO` [Example 1, N-(2-Hydroxyethyl)-Palmitoylamide], in data set [1], the “solubility in organic solvents” value is “hot methanol, CH3 Cl, DMSO”. The “solubility in water” value in “Solubility in water” (water) is reported as “insoluble”. For the same compound, the viability at 60 µM was found to be 86% in data set [2] (setting [5]) and 101% in data set [2] (setting [8]). The viability at 100 µM in data set [2] (setting [6]) was found to be 67%; in data set [2] (setting [7]) it was 84%; in data set [2] (setting [9]), 76%.
For the compound `N[C@@H](CCC(=O)O)C(=O)O` [Glu, glutamic acid, reference compound], the viability at 500 µM was 44% in data set [2] (read-out: survived cells (%), Glu alone, 60 μM column) and 40% in data set [2] (read-out: survived cells (%), Glu alone, 100 μM column).
As for `CCCCCCCCCCCCCCCC(=O)NCCOC(=O)CCC(=O)O` [Example 7, N-(2-Hydroxyethyl)-Palmitoylamide Succinate Acid], the solubility in data set [1] (setting [4]) is above 5000 µg/mL; in the data set “Solubility in water” (water, as potassium salt, read-out: solubility in water as potassium salt), above 1000 µg/mL. Further, the “solubility in water” value in the data set “Solubility in water” (water) is listed as “poorly soluble”.
For the compound `O=C(CCCCCCCC(=O)NCCO)NCCO` [Example 9, N,N'-Bis-(2-Hydroxyethyl)-Nonandiamide], the solubility in data set [1] (setting [4]) is above 10000 µg/mL. In addition, the figures for the viability at 100 µM in data set [2] (setting [6]), in data set [2] (setting [7]) and in data set [2] (setting [9]) were 68%, 92% and 87%, respectively.
Consider `CCCCCCCCCCCCCCCC(=O)NCCOP(=O)(O)O` [Example 5, N-Palmitoylethanolamide Phosphate], for which the results for the solubility (in data set [1] (setting [4]); in the data set “Solubility in water” (setting [10])) were above 10000 µg/mL and above 1000 µg/mL, respectively. The “solubility in water” value in the data set “Solubility in water” (water) is recorded as “poorly soluble”. Moreover, the viability at 60 µM in data set [2] (setting [5]) came to 68%; in data set [2] (B: compound added soon after exposure to Glu (500 μM, 5 min), 60 μM, % of control values, average of three tests, Glu alone 44, read-out: survived cells (%), treatment B, 60 μM), 99%; in data set [2] (setting [8]) it was 90%.
As to `O=C(O)CCC(=O)OCCNC(=O)C=CCCCCCCCCC(=O)NCCOC(=O)CCC(=O)O` [Example 8, N,N'-Bis(2-Hydroxyethyl)-Dodecenediamide Disuccinate Acid], the values for the solubility (in data set [1] (setting [4]); in the data set “Solubility in water” (setting [10])) were above 10000 µg/mL and above 1000 µg/mL, respectively. Besides, in “Solubility in water” (water), the “solubility in water” value is listed as “poorly soluble”.
As for `O=C(/C=C/CCCCCCCCC(=O)NCCOP(=O)(O)O)NCCOP(=O)(O)O` [Example 6, N,N'-Bis(2-Hydroxyethyl)-Dodecenediamide Diphosphate Disodium Salt], the solubility was above 10000 µg/mL in data set [1] (DMSO, product in acid form, read-out: solubility in DMSO (product in acid form)) and above 10000 µg/mL in the data set “Solubility in water” (water, read-out: solubility in water).

Source of the values: patent publication US5925678A, “Use of N-acyl derivatives of aminoalcohols in the manufacture of a medicament for practicing neuroprotective action in neuropathological states connected with excitotoxicity” (Lifegroup S.P.A., priority 1994, dated 1999).
